# Results from patent publication US6911550B2, “Derivatives of seleno-amino acids with improved bioavailability and method for their preparation” (priority 2003, dated 2005).
# Where a name gives a salt, the structure may show the parent alone.
# What was measured:
# [1] = Tissue selenium concentrations in grow-finish pigs; format: in vivo
# Text: (§1) Sixteen pigs with an average weight of 22.9 kg were stratified by weight within sex and randomly assigned to treatments consisting of 0.3 ppm supplemental selenium from either sodium selenite or zinc L-selenomethionine hydrochloride. Pigs were housed in pens and each treatment consisted of four replicate pens each housed one gilt and one […]. Pigs were fed diets that were formulated to meet NRC requirements. Pigs were fed the growing diet for 56 days and then the finishing diet for 33 days. The average pig weight at the end of the growing and finishing phases was 69.6 and 101.2 kg, respectively. Body weights of each pig were determined initially and at the end of the growing and finishing phases. At the end of the study, pigs were slaughtered and samples of liver, muscle, heart and kidney were collected for selenium determination.
# [2] = Performance of grow-finish pigs fed selenium sources; format: in vivo; details: for Feed Intake / Feed/Gain / Gain: 0.3 ppm supplemental selenium
# Text: as §1
# glutathione peroxidase [3] = test: Plasma glutathione peroxidase activity in broilers; format: in vivo; details: day 49
# Method: (§2) One day old male and female birds were used in the study. Male and females were housed separately and randomly assigned to 6 blocks of 8 pens each (4 females and 4 males). The pens contained 50 females or 45 males. Two extra birds were added to each pen at the start of the experiment to allow for mortality and culls. On day 7 the number of birds in each per were adjusted to 50 females and 45 males. Three treatments were assigned to pens using a complete randomized block design. The treatments included: 1) negative control (no additional selenium), 2) sodium selenite, and 3) zinc L-selenomethionine. Birds were housed in concrete floor pens of an environmentally controlled facility. Environmental conditions were similar for all birds in all experimental groups. […] All feed added and removed from pens from day 0 to the end of the study was weighed and recorded. […] The feed intake for each pen was determined by subtracting the amount of feed remaining in the feeder at the end of the study period from the amount of feed weighed into the pen. Average bird weight was calculated on a pen basis. […] Blood was collected in heparinized tubes, plasma was separated and stored at −20° C. until analyzed for selenium and glutathione peroxidase. […] A 100 g sample of the right breast was collected from each bird and stored at −20° C. until analyzed for selenium.
# [4] = Plasma and tissue selenium concentrations in selenium-depleted lambs fed selenium sources; format: in vivo; details: for Relative bioavailability based on tissue selenium concentration, Heart / Relative bioavailability based on tissue selenium concentration, Kidney / Relative bioavailability based on tissue selenium concentration, Liver / Relative bioavailability based on tissue selenium concentration, Muscle: sheep, po, 56 days
# Text: (§3) […] lambs with average weight of 18.5 kg were used. […] Lambs were weaned at approximately two months of age and placed in plastic pens with plastic feeders and stainless steel waterers. For 56 days lambs were fed feedstuff low in selenium. Jugular blood samples were obtained from all lambs on days 0, 28 and 56. At the end of the 56-day depletion period, lambs were stratified by weight and randomly assigned to […]. The treatments consisted of: 1) Control, 2) sodium selenite, 3) L-selenomethionine and 4) zinc L-selenomethionine. The selenium sources were added to provide 0.05 ppm of supplemental selenium for 28 days and then the amount of selenium from each source was increased to 0.1 ppm for additional 28 days. Blood samples were collected via jugular puncture on days 0, 14, 28 and 56. Whole blood and plasma glutathione peroxidase activity in samples obtained on days 0, 14, 28, and 56. Plasma selenium was measured in samples obtained on days 0, 28, and 56. Six lambs from each treatment were slaughtered at the end of the study and samples of liver, kidney, muscle, and heart were obtained for the determination of selenium and glutathione peroxidase activities.
# Solubility in water = format: physicochemical
# Method: L-Selenomethionine (97.8 mg, 0.5 mmole) was added to water (45 ml) in a 250-ml round bottom flask placed in an ice-bath. The mixture was vigorously stirred by using a magnetic stirrer and a Teflon coated stir-bar. […] Zinc chloride (68.20 mg, 0.5 mmole) was added with continued stirring. A clear solution was immediately formed. The solution was concentrated to dryness at temperature 40° C. under reduced pressure. A hygroscopic colorless solid was formed.
# [5] = Stability of a zinc L-selenomethionine solution on storage (HPLC); format: physicochemical
# Method: FTIR Identification: A 100 μL of the extract was added to 100 mg of FTIR grade potassium bromide powder and mixed well. The mixer was dried in an oven at 75° C. A pellet was formed and the FTIR spectrum of the sample was recorded. […] (w, weak; m, medium; s, strong; vs, very strong). This spectrum is different than that of L-selenomethionine. Of interest is the absence of the weak to medium band at around 2118 cm^−1 characteristic of free amino acids. HPLC Determination: The concentration of zinc L-selenomethionine in the water extract was determined by HPLC. A Shimadzu instrument composed of SCL-10A-VP Controller, Dual LC-10AD-VP Pumps, SIL-10 Ai Auto sampler, and SCD-10AV-VP UV/Visible Detector set at 210 nm. A Discovery Cyano 5μ column (25 cm×4.6 mm) was used at 25° C. The mobile phase was a 0.1% Glacial acetic Acid at 1.00 mL/min. A 50 μL of the standard or sample solution was injected by the auto sampler. A set of 5 standards were prepared to contain 0.1567, 0.3134, 0.4701, 0.6268, and 0.7835 mg/ml of Zinc L-Selenomethionine. A 100 μL of the sample extract was diluted with 900 μL water and used as sample solution. Standards and sample solutions are filtered through a 2μ filter before injection. Standards and sample contained only a single component with a retention time of 3.975 min. Linear regression was used to construct a correlation graph of area under the peak vs. concentration. The concentration of zinc L-selenomethionine in the sample solution was calculated from the correlation graph and found to be 0.3898 mg/mL corresponding to 18.79% Zinc L-Selenomethionine or 5.67% Selenium in the original Premix.
# About 2.0 g of a Zinc L-Selenomethionine Premix 5% Se was accurately weighed and transferred into a 100-ml volumetric flask. Water was added to volume. The flask was stoppered and its contents were mixed vigorously. The mixture was allowed to settle and a sample of the supernatant was removed carefully and filtered through a […]. The concentration of zinc L-selenomethionine in the filtrate was determined by HPLC as described in EXAMPLE 2. Analysis was conducted immediately after the solution was prepared and repeated at 30 days and 90 days after storing at an ambient temperature averaging 18° C. and 50% relative humidity.
# glutathione peroxidase [6] = test: Glutathione peroxidase activity in selenium-depleted lambs fed selenium sources; format: in vivo; details: for Whole blood glutathione peroxidase activity, difference between selenium sources / Plasma glutathione peroxidase activity compared with sodium selenite / Glutathione peroxidase activities in kidney, liver, and muscle compared to sodium selenite: lambs; for Whole blood glutathione peroxidase activity, difference between selenium sources: day 14; for Plasma glutathione peroxidase activity compared with sodium selenite: day 28, 0.05 ppm Se; for Glutathione peroxidase activities in kidney, liver, and muscle compared to sodium selenite: supplemented for 56 days; for Relative bioavailability based on glutathione peroxidase activity, Plasma, day 14 / Relative bioavailability based on glutathione peroxidase activity, Plasma, day 28 / Relative bioavailability based on glutathione peroxidase activity, Heart / Relative bioavailability based on glutathione peroxidase activity, Kidney / Relative bioavailability based on glutathione peroxidase activity, Liver / Relative bioavailability based on glutathione peroxidase activity, Muscle: sheep, po; for Relative bioavailability based on glutathione peroxidase activity, Plasma, day 14: 14 days; for Relative bioavailability based on glutathione peroxidase activity, Plasma, day 28: 28 days; for Relative bioavailability based on glutathione peroxidase activity, Heart / Relative bioavailability based on glutathione peroxidase activity, Kidney / Relative bioavailability based on glutathione peroxidase activity, Liver / Relative bioavailability based on glutathione peroxidase activity, Muscle: 56 days
# Text: as §3
# [7] = Rumen degradation after ingestion; details: in vivo
# [8] = Plasma selenium concentration in broilers; details: both, chicken (broilers), in vivo, 49 days
# Method: as §2
Structure (SMILES),Feed Intake ([2]; Finishing Phase (33 days)) [kg],Feed/Gain ([2]; Finishing Phase (33 days)),Gain ([2]; Finishing Phase (33 days)) [kg/day],Feed Intake ([2]; Growing Phase (56 days)) [kg],Feed/Gain ([2]; Growing Phase (56 days)),Gain ([2]; Growing Phase (56 days)) [kg/day],Feed Intake ([2]; Total) [kg],Feed/Gain ([2]; Total),Gain ([2]; Total) [kg/day],Glutathione Peroxidase Activity (glutathione peroxidase [3]),Solubility in water (Solubility in water),Stability of the water solution on storage [5],"Whole blood glutathione peroxidase activity, difference between selenium sources (glutathione peroxidase [6])",Plasma glutathione peroxidase activity compared with sodium selenite (glutathione peroxidase [6]),"Glutathione peroxidase activities in kidney, liver, and muscle compared to sodium selenite (glutathione peroxidase [6])","Relative bioavailability based on glutathione peroxidase activity, Plasma, day 14 (glutathione peroxidase [6]; in vivo)","Relative bioavailability based on glutathione peroxidase activity, Plasma, day 28 (glutathione peroxidase [6]; in vivo)","Relative bioavailability based on glutathione peroxidase activity, Heart (glutathione peroxidase [6]; in vivo)","Relative bioavailability based on glutathione peroxidase activity, Kidney (glutathione peroxidase [6]; in vivo)","Relative bioavailability based on glutathione peroxidase activity, Liver (glutathione peroxidase [6]; in vivo)",further results
"O=[Se](O)O [Sodium Selenite, reference compound]",2.57,2.71,0.95,1.74,2.15,0.81,2.05,2.38,0.86,14.0,,,,,,,,,,,"Kidney selenium concentrations, sodium selenite versus zinc L-selenomethionine ([1]; pigs): similar; Plasma selenium concentration, difference between selenium sources ([4]; lambs, day 28): no difference"
"C[Se]C[C@H](N)C(=O)O.Cl.[Zn] [zinc Se-methyl-L-selenocysteine complex, Zinc L-Se-Methylselenocysteine Hydrochloride]",,,,,,,,,,,readily soluble in water,stable solution,,,,,,,,,
"C[Se]CC[C@H](N)C(=O)O [L-Selenomethionine, reference compound]",,,,,,,,,,,did not completely go into solution,,no difference,higher,higher activities,124,138,107,100,161,"Relative bioavailability based on glutathione peroxidase activity, Muscle (glutathione peroxidase [6]; in vivo): 186; Heart and liver selenium concentrations compared with sodium selenite ([4]; in vivo): higher heart and liver selenium concentrations; Plasma selenium compared with sodium selenite ([4]; in vivo): higher plasma selenium; Relative bioavailability based on tissue selenium concentration, Heart ([4]; in vivo): 139; Relative bioavailability based on tissue selenium concentration, Kidney ([4]; in vivo): 59; Relative bioavailability based on tissue selenium concentration, Liver ([4]; in vivo): 206; Relative bioavailability based on tissue selenium concentration, Muscle ([4]; in vivo): 133"
"C[Se]CC[C@@H]1[NH][Zn][O]C1=O [Zn L-Selenomethionine, Zinc L-Selenomethionine Hydrochloride]",2.22,2.31,0.96,1.86,2.16,0.86,2.00,2.22,0.90,14.9,,stable on storage,no difference,higher,higher activities,145,149,126,128,152,"Rumen degradation after ingestion [7]: resistant to rumen degradation; Kidney selenium concentrations, sodium selenite versus zinc L-selenomethionine ([1]; pig, in vivo): similar; Selenium concentrations in liver, muscle and heart compared with sodium selenite ([1]; pig, in vivo): higher selenium concentrations; Concentration of zinc L-selenomethionine in the solution ([5]; after 30 days at ambient temperature averaging 18° C. and 50% relative humidity): 18.89%; Concentration of zinc L-selenomethionine in the solution ([5]; after 90 days at ambient temperature averaging 18° C. and 50% relative humidity): 18.78%; Concentration of zinc L-selenomethionine in the solution ([5]; day of preparation, solution of Premix 5% Se in water): 18.95%; Change of concentration of zinc L-selenomethionine in the solution ([5]; thirty day storage at ambient temperature and humidity): less than 0.5%; Plasma Selenium Concentration [8]: 0.177 ppm; Gain/feed ratio compared with sodium selenite [2]: higher; Feed consumed compared with sodium selenite ([2]; finishing phase): consumed less feed; Bioavailability compared with sodium selenite and L-selenomethionine (glutathione peroxidase [6]; in vivo): more bioavailabe; Relative bioavailability based on glutathione peroxidase activity, Muscle (glutathione peroxidase [6]; in vivo): 200; Heart and liver selenium concentrations compared with sodium selenite ([4]; in vivo): higher heart and liver selenium concentrations; Plasma selenium compared with sodium selenite ([4]; lambs, day 56): higher plasma selenium; Relative bioavailability based on tissue selenium concentration, Heart ([4]; in vivo): 158; Relative bioavailability based on tissue selenium concentration, Kidney ([4]; in vivo): 74; Relative bioavailability based on tissue selenium concentration, Liver ([4]; in vivo): 160; Relative bioavailability based on tissue selenium concentration, Muscle ([4]; in vivo): 85"
